Measured values reported in patent US20190211099A1, “METHODS AND COMPOSITIONS FOR TREATING CANCER WITH SIGLEC-9 ACTIVITY MODULATORS” (KING'S COLLEGE LONDON, priority 2016, published 2019).

Assays:
monocytes = assay: Nitric oxide release by monocytes (Griess method); format: cell-based, human
Experimental: MUC1-ST was further evaluated for its ability to produce pro-inflammatory nitric oxide, a product of the arginine processing enzyme (Thompson et al. (2015) CARCINOGENESIS 36: S232-S253). Supernatant was assessed using the Griess method according to the manufacturer's instructions (Biotium).

CD8+ T cells = assay: Co-culture of MUC1-ST educated M-CSF macrophages with CD3/CD28 stimulated autologous T cells; format: cell-based, human; settings: MUC1-ST educated M-CSF macrophages
Experimental: In addition, primary monocytes were induced to differentiate to macrophages in the presence of MUC1-ST and then co-cultured for 48 hours with CD3/CD28 stimulated autologous CD8+ or CD4+ T cells. T cell proliferation and CD69/CD25 cell surface expression were measured using flow cytometry.

macrophages = assay: Phenotype of MUC1-ST treated macrophages (CD206, CD163, PD-L1; flow cytometry); format: cell-based, human
Experimental: (§1) Both the cell phenotype staining and neutralization studies described in the Examples were performed using the following antibodies (all anti-human): Siglec-9 (Biotechne; 191240), Siglec-9 FITC (Biotechne; 191240), Siglec-3 (Biotechne; 6C5/2), Siglec-7 (Biotechne; AF1138), Siglec-3 FITC (BD; P67.6), Siglec-7 PE (Biolegend; 6-434), Siglec-10 PE (Biolegend; 5G6), Siglec-1 (abcam; 7D2), HLA-DR FITC (Beckman Coulter; IM0463U), CD16 FITC (Biolegend; B73.1), CD14 FITC (BD 555397), CD69 PE (Beckman Coulter; IM1943), CD25 FITC (ABX228FITC), CD86 PE (Beckman Coulter; IM2729U), CD40 FITC (BD 555588), CD83 PE (Beckman Coulter; IM2218), CD163 PE (Biolegend; GHI/61), CXCR1 FITC (BD Pharmongen; 551126), CD45 PC5 (Beckman Coulter; IM2653U), CD206 PE (ebioscience; 19.2), PD-L1 PE (Biolegend; 29E.2A3), CD36 (Santa Cruz; H-300), TGFbetaRII (Bio-Techne; AF-241), IL-6Rα (Tocilizumab; Roche. A generous gift from Dr. Valerie Corrigall). Cells were suspended in PBS+0.5% BSA (2×10^5 cells/100 μL/sample) and incubated with Abs according to the manufacturer's instructions. At least 1×10^4 events were evaluated using either Epics XL, (Beckman Coulter) or FACSCalibur (BD Biosciences) flow cytometers. Analysis was performed using either WinMDI or Cellquest software.

[1] = tested on: indoleamine 2,3-dioxygenase (IDO); assay: IDO mRNA in monocyte-derived macrophages (qRT-PCR); format: cell-based, human; settings: macrophages differentiated with GM-CSF or M-CSF
SHP1 = assay: Western blot for phosphorylation of SHP1 in monocytes; format: cell-based, human; settings: primary monocytes
Experimental: (§2) A Western blot to assay phosphorylation of SHP, which is recruited by phosphorylated Siglec-9 (Avril et al. (2004) supra) was conducted. Monocytes were incubated with MUC1-ST and lysed as described above, and the resulting lysates were separated by SDS PAGE (10% gel) before being transferred, blocked and probed with anti-SHP1 (Santa Cruz), anti-phospho SHP1 (Abcam) and appropriate secondary antibodies. Phosphorylation of SHP was not observed after MUC1-ST binding to Siglec-9 on primary monocytes (FIG. 13C) although again, phosphorylation of SHP1 was observed when Siglec-9 was activated via antibody cross-linking. No activation of SHP2 was observed.

SHP2 = assay: Activation of SHP2 after MUC1-ST binding; format: cell-based, human
Experimental: ELISAs for IL-6, IL-12p70, TGF-β1, PAI-1, M-CSF, EGF, SHP2, phospho-SHP2 (Biotechne) were all carried out as per manufacturer's instructions.
as §2

Siglec-9 = Siglec-9 (Homo sapiens, UniProt Q9Y336); assay: Binding of biotinylated MUC1-ST to primary monocytes and monocyte-derived macrophages (flow cytometry), with or without blocking antibody; format: cell-based; set-up: endogenous in cells; host or cells: THP-1 and U937 cells; settings: primary monocytes, monocyte-derived macrophages and AML lines
Sequence of Siglec-9 (Q9Y336 18-463): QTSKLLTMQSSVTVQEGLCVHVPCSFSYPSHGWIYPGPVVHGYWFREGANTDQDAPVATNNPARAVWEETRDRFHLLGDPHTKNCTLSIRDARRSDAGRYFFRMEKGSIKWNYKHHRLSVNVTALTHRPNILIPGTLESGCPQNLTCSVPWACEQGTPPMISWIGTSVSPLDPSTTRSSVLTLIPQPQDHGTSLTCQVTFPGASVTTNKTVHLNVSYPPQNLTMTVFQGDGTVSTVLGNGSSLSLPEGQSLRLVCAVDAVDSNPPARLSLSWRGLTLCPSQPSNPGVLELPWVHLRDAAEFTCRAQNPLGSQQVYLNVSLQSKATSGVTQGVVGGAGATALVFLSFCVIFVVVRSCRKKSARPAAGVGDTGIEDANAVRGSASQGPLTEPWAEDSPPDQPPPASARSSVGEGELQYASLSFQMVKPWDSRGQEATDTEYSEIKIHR
Experimental: as §1, with “Analysis was performed using either WinMDI or Cellquest software.” left out
To investigate the interaction of MUC1-ST with cells of the immune system, immune cell subsets were obtained as follows. […] Purity was assessed at >95% by staining with relevant antibodies. […]

increase in expression of mRNA encoding IDO [1]: 10-25 fold
activation of SHP2 (SHP2): No activation
binding to cells (Siglec-9): found to bind
Substance: NeuAcα2,3Galβ1-3GalNAc linked via a Ser/Thr of MUC1 [MUC1-ST]
nitric oxide production (monocytes): produced nitric oxide
activation of CD8+ T cells (expression of CD25 and CD69) (CD8+ T cells): lower level of activation
proliferation of CD8+ T cells (CD8+ T cells; 48 hours co-culture): significantly inhibited
expression of immune checkpoint ligand PD-L1 (macrophages): increased expression
levels of mannose receptor (CD206) and scavenger receptor CD163 (macrophages): increased levels
phosphorylation of SHP (SHP1): not observed
